Source: patent US9097702B2, “Pathologically relevant tumor microenvironments for high-throughput drug screening” (Cornell University, priority 2008, dated 2015)

Tests used:
[1] = tested on: MDA-MB231 breast cancer cells; test: Doxorubicin responsiveness in 3-D cultures within RGD-modified alginate gels versus 2-D monolayer; assay type: cell-based, human; settings: 3-D cultures within RGD-modified alginate gels vs 2-D monolayer (FIG. 5C)
Experimental: To examine tumor malignancy and efficacy of anti-cancer drugs in response to enhanced mechanical stiffness, MDA-MB231 were incorporated in 3-D RGD-modified alginate cultures and were evaluated for proliferation, secretion of a molecular marker of enhanced malignancy (i.e., interleukin-8 (IL-8)), and drug responsiveness.
(§1) Consequently, all subsequent drug testing studies were performed with doxorubicin.

[2] = tested on: MDA-MB231 breast cancer cells; test: MDA-MB231 viability in conventional 2-D culture; assay type: cell-based, human
Experimental: For the drug testing studies, different doses of two frequently utilized chemotherapeutic drugs were first evaluated with regard to their ability to reduce breast cancer cell viability in conventional 2-D culture.
as §1

SMILES | efficacy of doxorubicin treatment in 3-D relative to 2-D conditions [1] | number of viable tumor cells in 2-D culture ([2]; 0.5 μM, 2-D culture (FIG. 5B, right panel)) | MDA-MB231 viability in 2-D culture ([2]; high doses, 2-D culture (FIG. 5B, left panel))
COc1cccc2c1C(=O)c1c(O)c3c(c(O)c1C2=O)C[C@@](O)(C(=O)CO)C[C@@H]3O[C@H]1C[C@H](N)[C@H](O)[C@H](C)O1 [doxorubicin] | 3-D micro-environmental conditions dramatically-reduce the efficacy of doxorubicin treatment relative to 2-D conditions | efficiently reduced the number of viable tumor cells | –
N.N.[Cl][Pt][Cl] [cisplatin] | – | – | did not alter MDA-MB231 viability
